≈ marks a conversion by molar mass, not a printed value. Where two headings read alike, the source gives them in different places.
Legend:
Assay type in all cases: cell-based
Pasteurella hemolytica = assay: MIC (minimum inhibitory concentration), agar dilution, Pasteurella hemolytica; details: Pasteurella, read-out: MIC
Protocol: (§1) Stock solution of each test antibiotic compound were prepared to have a concentration of 2 mg. of the test compound per milliliter in sterile water of 0.1M ammonium acetate solution. The amount of each compound used was adjusted for base compound activity as calculated from the purity data for the selected batch of compound.
(§2) The dilution procedure described by Washington and Sutter [Manual of Clinical Microbiology, 3rd, Edit. (Lennett, E. H. et al, Eds.), pp. 453-458 (1980), American Society for Microbiology, Washington, D.C.] was modified so that serial concentrations of 128 to 0.0625 microgram/ml. in sterile water was obtained. Then 1.5 ml. aliquots of these test antibiotic dilution mixtures are added to 13.5 molten (50° C.) Mueller-Hinton agar. Each resulting mixture is poured into 15×100 mm, sterile Petri plates and allowed to dry at room temperature overnight.
(§3) Test bacterial cultures are maintained at -70° C. on glass beads. [See R. J. Yancey, Jr. et al, Amer. Jr. of Vet. Research, 48, No. 7, pp. 1050-1053, (1987)]. At least one bacteria-laden bead per culture is dropped into one ml. of brain heart infusion (BHI) broth for overnight culture at 37° C. in 5% V/V carbon dioxide in air atmosphere.
(§4) On the data of assay, 2 to 8 drops of the bacterial broth cultures are transferred to fresh BHI broth (1 ml.) and the mixture is incubated for 4 to 6 hours at 37° C. in a 5% V/V carbon dioxide in air atmosphere. The resulting cultures are then diluted to match a 0.5 MacFarland standard and further diluted 1:20 V/V with sterile saline solution.
(§5) A 0.001 ml. drop of the resulting mixture, containing approximately 10^3 to 10^4 colony forming units (CFU) of each test bacteria organism, is dispensed onto the surface of the test antibiotic compound test plates with a Steer's type replicator. The resulting innoculated plates are incubated 16 to 18 hours at 37° C. with a carbon dioxide atmosphere.
as §1, with “Stock solutions” for “Stock solution”
as §2, with “mm.” for “mm,”
as §2, with “for Microbiology.” for “for Microbiology,”, “15×100 mm.” for “15×100 mm,”
as §3, with “culture” for “cultures”
(§6) On the day of assay, 2 to 8 drops of the bacterial broth cultures are transferred to fresh BHI broth (1 ml.) and the mixture is incubated for 4 to 6 hours at 37° C. in a 5% V/V carbon dioxide in air atmosphere. […]

Pasteurella multocida = assay: MIC, agar dilution, Pasteurella multocida; details: Pasteurella multocida; strain UC9581; read-out: MIC
Protocol: as §1, §2, §3, §4, §5
as §1, with “Stock solutions” for “Stock solution”
as §2, with “mm.” for “mm,”
as §2, with “for Microbiology.” for “for Microbiology,”, “15×100 mm.” for “15×100 mm,”
as §3, with “culture” for “cultures”
as §6

Escherichia coli = assay: MIC, agar dilution, Escherichia coli; details: Escherichia coli, read-out: MIC
Protocol: as §1, §2, §3, §4, §5
as §1, with “Stock solutions” for “Stock solution”
as §2, with “mm.” for “mm,”
as §2, with “for Microbiology.” for “for Microbiology,”, “15×100 mm.” for “15×100 mm,”
as §3, with “culture” for “cultures”
as §6

Salmonella choleraesuis = assay: MIC, agar dilution, Salmonella choleraesuis; details: Salmonella enterica, read-out: MIC
Protocol: as §1, §2, §3, §4, §5
as §1, with “Stock solutions” for “Stock solution”
as §2, with “mm.” for “mm,”
as §2, with “for Microbiology.” for “for Microbiology,”, “15×100 mm.” for “15×100 mm,”
as §3, with “culture” for “cultures”
as §6

Salmonella typhimurium = assay: MIC, agar dilution, Salmonella typhimurium; details: Salmonella enterica, read-out: MIC
Protocol: as §1, §2, §3, §4, §5
as §1, with “Stock solutions” for “Stock solution”
as §2, with “mm.” for “mm,”
as §2, with “for Microbiology.” for “for Microbiology,”, “15×100 mm.” for “15×100 mm,”
as §3, with “culture” for “cultures”
as §6

[1] = tested on: Bordetella bronchiseptica; assay: MIC, agar dilution, Bordetella bronchiseptica; details: Bordetella bronchiseptica; strain UC6313; read-out: MIC
Protocol: as §1, §2, §3, §4, §5
as §1, with “Stock solutions” for “Stock solution”
as §2, with “mm.” for “mm,”
as §2, with “for Microbiology.” for “for Microbiology,”, “15×100 mm.” for “15×100 mm,”
as §3, with “culture” for “cultures”
as §6

Pseudomonas aeruginosa = assay: MIC, agar dilution, Pseudomonas aeruginosa; details: Pseudomonas aeruginosa, ATCC27853; strain ATCC 27853; read-out: MIC
Protocol: as §1, §2, §3, §4, §5
as §1, with “Stock solutions” for “Stock solution”
as §2, with “mm.” for “mm,”
as §2, with “for Microbiology.” for “for Microbiology,”, “15×100 mm.” for “15×100 mm,”
as §3, with “culture” for “cultures”
as §6

Staphylococcus aureus = assay: MIC, agar dilution, Staphylococcus aureus; details: Staphylococcus aureus, read-out: MIC
Protocol: as §1, §2, §3, §4, §5
as §1, with “Stock solutions” for “Stock solution”
as §2, with “mm.” for “mm,”
as §2, with “for Microbiology.” for “for Microbiology,”, “15×100 mm.” for “15×100 mm,”
as §3, with “culture” for “cultures”
as §6

Streptococcus agalactiae = assay: MIC, agar dilution, Streptococcus agalactiae; details: Streptococcus agalactiae, read-out: MIC
Protocol: as §1, §2, §3, §4, §5
as §1, with “Stock solutions” for “Stock solution”
as §2, with “mm.” for “mm,”
as §2, with “for Microbiology.” for “for Microbiology,”, “15×100 mm.” for “15×100 mm,”
as §3, with “culture” for “cultures”
as §6

Streptococcus bovis = assay: MIC, agar dilution, Streptococcus bovis; details: Streptococcus equinus; strain UC6281; read-out: MIC
Protocol: as §1, §2, §3, §4, §5
as §1, with “Stock solutions” for “Stock solution”
as §2, with “mm.” for “mm,”
as §2, with “for Microbiology.” for “for Microbiology,”, “15×100 mm.” for “15×100 mm,”
as §3, with “culture” for “cultures”
as §6

[2] = tested on: Streptococcus dysgalactiae; assay: MIC, agar dilution, Streptococcus dysgalactiae; details: Streptococcus dysgalactiae; strain UC251; read-out: MIC
Protocol: as §1, §2, §3, §4, §5
as §1, with “Stock solutions” for “Stock solution”
as §2, with “mm.” for “mm,”
as §2, with “for Microbiology.” for “for Microbiology,”, “15×100 mm.” for “15×100 mm,”
as §3, with “culture” for “cultures”
as §6

Enterococcus faecium = assay: MIC, agar dilution, Enterococcus faecium; details: Enterococcus faecium; strain UC241; read-out: MIC
Protocol: as §1, with “Stock solutions” for “Stock solution”
as §2, §3, §4, §5, §1
as §2, with “mm.” for “mm,”
as §2, with “for Microbiology.” for “for Microbiology,”, “15×100 mm.” for “15×100 mm,”
as §3, with “culture” for “cultures”
as §6

Enterococcus faecalis = assay: MIC, agar dilution, Enterococcus faecalis; details: Enterococcus faecalis; strain UC694; read-out: MIC
Protocol: as §1, with “Stock solutions” for “Stock solution”
as §2, §3, §4, §5, §1
as §2, with “mm.” for “mm,”
as §2, with “for Microbiology.” for “for Microbiology,”, “15×100 mm.” for “15×100 mm,”
as §3, with “culture” for “cultures”
as §6

Streptococcus suis = assay: MIC, agar dilution, Streptococcus suis; details: Streptococcus suis; strain 650-2; read-out: MIC
Protocol: as §1, §2, §3, §4, §5
as §1, with “Stock solutions” for “Stock solution”
as §2, with “mm.” for “mm,”
as §2, with “for Microbiology.” for “for Microbiology,”, “15×100 mm.” for “15×100 mm,”
as §3, with “culture” for “cultures”
as §6

Streptococcus uberis = assay: MIC, agar dilution, Streptococcus uberis; details: Streptococcus uberis, read-out: MIC
Protocol: as §1, §2, §3, §4, §5
as §1, with “Stock solutions” for “Stock solution”
as §2, with “mm.” for “mm,”
as §2, with “for Microbiology.” for “for Microbiology,”, “15×100 mm.” for “15×100 mm,”
as §3, with “culture” for “cultures”
as §6

Corynebacterium pyogenes = assay: MIC, agar dilution, Corynebacterium pyogenes; details: strain 213-2; read-out: MIC
Protocol: as §1, §2, §3, §4, §5
as §1, with “Stock solutions” for “Stock solution”
as §2, with “mm.” for “mm,”
as §2, with “for Microbiology.” for “for Microbiology,”, “15×100 mm.” for “15×100 mm,”
as §3, with “culture” for “cultures”
as §6

Micrococcus luteus = assay: MIC, agar dilution, Micrococcus luteus; details: Micrococcus luteus; strain UC130; read-out: MIC
Protocol: as §1, §2, §3, §4, §5
as §1, with “Stock solutions” for “Stock solution”
as §2, with “mm.” for “mm,”
as §2, with “for Microbiology.” for “for Microbiology,”, “15×100 mm.” for “15×100 mm,”
as §3, with “culture” for “cultures”
as §6

[3] = CHOLERAESUIS / UC6073, strain UC6073
[4] = CHOLERAESUIS / UC6077, strain UC6077
[5] = TYPHIMURIUM / UC6162, strain UC6162
[6] = TYPHIMURIUM / UC6164, strain UC6164

| MIC (Pasteurella multocida) | MIC (Escherichia coli; strain UC3784) | MIC (Escherichia coli; strain UC6720) | MIC (Escherichia coli; strain UC9670) | MIC (Salmonella typhimurium; [5]) | MIC (Salmonella typhimurium; [6]) | MIC [1] | MIC (Pseudomonas aeruginosa) | MIC (Staphylococcus aureus; strain UC6093) | MIC (Staphylococcus aureus; strain UC6097) | MIC (Staphylococcus aureus; strain UC9203) | MIC (Streptococcus agalactiae; strain UC6892) | MIC (Streptococcus bovis) | MIC [2] | MIC (Enterococcus faecium) | SMILES | MIC (Pasteurella hemolytica; strain UC6531) | MIC (Pasteurella hemolytica; strain UC6532) | MIC (Pasteurella hemolytica; strain UC9582) | MIC (Salmonella choleraesuis; [3]) | MIC (Salmonella choleraesuis; [4]) | also measured |
| --- | --- | --- | --- | --- | --- | --- | --- | --- | --- | --- | --- | --- | --- | --- | --- | --- | --- | --- | --- | --- | --- |
| 8 µg/mL (≈ 15.5 µM) | 8 µg/mL (≈ 15.5 µM) | 16 µg/mL (≈ 30.9 µM) | 8 µg/mL (≈ 15.5 µM) | 16 µg/mL (≈ 30.9 µM) | 16 µg/mL (≈ 30.9 µM) | > 32 µg/mL | > 32 µg/mL | 4 µg/mL (≈ 7.73 µM) | 2 µg/mL (≈ 3.86 µM) | 2 µg/mL (≈ 3.86 µM) | > 32 µg/mL | > 32 µg/mL | ≤ 0.06 µg/mL | > 32 µg/mL | CCC(C)SSCC1=C(C(=O)O)N2C(=O)[C@@H](NC(=O)/C(=N\OC)c3csc(N)n3)[C@H]2SC1 (some centres unmarked) [Example 13] | 1 µg/mL (≈ 1.93 µM) | 0.13 µg/mL (≈ 0.251 µM) | 0.25 µg/mL (≈ 0.483 µM) | 32 µg/mL (≈ 61.8 µM) | > 32 µg/mL | MIC (Streptococcus agalactiae; strain UC3947): 2 µg/mL (≈ 3.86 µM); MIC (Enterococcus faecalis): > 32 µg/mL; MIC (Streptococcus suis): ≤ 0.06 µg/mL; MIC (Streptococcus uberis; strain UC3946): 0.13 µg/mL (≈ 0.251 µM); MIC (Streptococcus uberis; strain UC6159): 8 µg/mL (≈ 15.5 µM); MIC (Corynebacterium pyogenes): 32 µg/mL (≈ 61.8 µM); MIC (Micrococcus luteus): 0.13 µg/mL (≈ 0.251 µM) |
| 2 µg/mL (≈ 3.63 µM) | 8 µg/mL (≈ 14.5 µM) | 16 µg/mL (≈ 29 µM) | 8 µg/mL (≈ 14.5 µM) | 16 µg/mL (≈ 29 µM) | 16 µg/mL (≈ 29 µM) | > 32 µg/mL | > 32 µg/mL | 1 µg/mL (≈ 1.81 µM) | 1 µg/mL (≈ 1.81 µM) | 1 µg/mL (≈ 1.81 µM) | ≤ 0.06 µg/mL | ≤ 0.06 µg/mL | ≤ 0.06 µg/mL | > 32 µg/mL | CO/N=C(\C(=O)N[C@@H]1C(=O)N2C(C(=O)O)=C(CSSCc3ccccc3)CS[C@H]12)c1csc(N)n1 [Example 14] | 0.5 µg/mL (≈ 0.906 µM) | 0.25 µg/mL (≈ 0.453 µM) | 2 µg/mL (≈ 3.63 µM) | 16 µg/mL (≈ 29 µM) | 32 µg/mL (≈ 58 µM) | MIC (Enterococcus faecalis): > 32 µg/mL; MIC (Streptococcus suis): ≤ 0.06 µg/mL; MIC (Streptococcus uberis; strain UC3946): ≤ 0.06 µg/mL; MIC (Streptococcus uberis; strain UC6159): 8 µg/mL (≈ 14.5 µM); MIC (Corynebacterium pyogenes): 0.25 µg/mL (≈ 0.453 µM); MIC (Micrococcus luteus): ≤ 0.06 µg/mL |
